Measured values taken from PubChem BioAssay AID743481 (Broad Institute, 2014).
Calls of active or inactive are those of the source.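 How the source made its calls: active means compounds lowering cell ATP signal whose fitted AC50 is at most twice their highest tested dose; inconclusive means flat curve with moderate signal loss, or unreliable fit; inactive means the rest.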

What was measured:
[1] = HEK293T viability reduction via ATP content – cell-based, CellTiter-Glo luminescence, dry powder, cytotoxicity control, dose response (AID 743481); settings: HEK293T viability, ATP luminescence, 72 h; at 26 µM (top of the series)
[2] = system: HEK293T viability, ATP luminescence, 72 h; experiment: as above

| SMILES | activity change, negative = cytotoxicity [1] | AC50 [2] |
| --- | --- | --- |
| C[C@H](CO)N1C[C@H](C)[C@H](CN(C)C(=O)Nc2ccccc2)OCCCC[C@H](C)Oc2ccc(NC(=O)CCC(F)(F)F)cc2C1=O | -6.87% (inactive) | – |
| C[C@H](CO)N1C[C@H](C)[C@H](CN(C)C(=O)Nc2ccc3ccccc3c2)OCCCC[C@H](C)Oc2ccc(NC(=O)C3CCCCC3)cc2C1=O | 7.21% (inactive) | – |
| C[C@H](CO)N1C[C@H](C)[C@H](CN(C)C(=O)Nc2ccccc2)OCCCC[C@H](C)Oc2ccc(NC(=O)Nc3ccccc3)cc2C1=O | 0.603% (inactive) | – |
| C[C@H]1CCCCO[C@@H](CN(C)C(=O)Nc2cccc3ccccc23)[C@@H](C)CN([C@@H](C)CO)C(=O)c2cc(NC(=O)C3CCCCC3)ccc2O1 | -14.3% (inactive) | – |
| C[C@@H]1CN([C@@H](C)CO)C(=O)c2cc(NC(=O)C3CCCCC3)ccc2O[C@@H](C)CCCCO[C@@H]1CN(C)C(=O)Nc1cccc2ccccc12 | -17% (inactive) | – |
| C[C@H](CO)N1C[C@H](C)[C@@H](CN(C)C(=O)Nc2cccc3ccccc23)OCCCC[C@H](C)Oc2ccc(NC(=O)C3CCCCC3)cc2C1=O | -7.19% (inactive) | – |
| C[C@H](CO)N1C[C@H](C)[C@H](CN(C)C(=O)Nc2ccccc2)OCCCC[C@H](C)Oc2ccc(NC(=O)C3CCCCC3)cc2C1=O | -9.15% (inactive) | – |
| C[C@@H]1CN([C@@H](C)CO)C(=O)c2cc(NC(=O)C3CCCCC3)ccc2O[C@@H](C)CCCCO[C@H]1CN(C)C(=O)Nc1cccc2ccccc12 | – | 7.74 µM |
| C[C@H](CO)N1C[C@H](C)[C@H](CN(C)C(=O)Nc2ccc(F)cc2)OCCCC[C@H](C)Oc2ccc(NC(=O)C3CCCCC3)cc2C1=O | -7.09% (inactive) | – |
| C[C@H]1CCCCO[C@@H](CN(C)C(=O)Nc2ccccc2)[C@@H](C)CN([C@@H](C)CO)C(=O)c2cc(NC(=O)NC3CCCCC3)ccc2O1 | 3.42% (inactive) | – |
| C[C@@H]1CCCCO[C@@H](CN(C)C(=O)Nc2cccc3ccccc23)[C@H](C)CN([C@@H](C)CO)C(=O)c2cc(NC(=O)C3CCCCC3)ccc2O1 | -12.5% (inactive) | – |
| C[C@H](CO)N1C[C@H](C)[C@H](CN(C)C(=O)Nc2ccc(C(F)(F)F)cc2)OCCCC[C@H](C)Oc2ccc(NC(=O)CCC(F)(F)F)cc2C1=O | – | > 52 µM (inactive) |
| C[C@@H]1CCCCO[C@H](CN(C)C(=O)Nc2cccc3ccccc23)[C@H](C)CN([C@@H](C)CO)C(=O)c2cc(NC(=O)C3CCCCC3)ccc2O1 | -10.3% (inactive) | – |
| COc1ccc(S(=O)(=O)N(C)C[C@@H]2OCCCC[C@H](C)Oc3ccc(NS(=O)(=O)c4ccc(Cl)cc4)cc3C(=O)N([C@@H](C)CO)C[C@@H]2C)cc1 | – | 16.4 µM |
| C[C@H](CO)N1C[C@H](C)[C@H](CN(C)C(=O)Nc2cccc3ccccc23)OCCCC[C@H](C)Oc2ccc(NC(=O)c3ccccc3)cc2C1=O | -8.78% (inactive) | – |
| C[C@H](CO)N1C[C@H](C)[C@H](CN(C)C(=O)Nc2ccc(Cl)cc2)OCCCC[C@H](C)Oc2ccc(NC(=O)C3CCCCC3)cc2C1=O | -12.5% (inactive) | – |
| C[C@H](CO)N1C[C@H](C)[C@H](CN(C)C(=O)Nc2ccc(F)cc2)OCCCC[C@H](C)Oc2ccc(NC(=O)NC3CCCCC3)cc2C1=O | -9.87% (inactive) | – |
| C[C@H](CO)N1C[C@H](C)[C@H](CN(C)C(=O)Nc2cccc(F)c2)OCCCC[C@H](C)Oc2ccc(NC(=O)C3CCCCC3)cc2C1=O | 9.35% (inactive) | – |
| C[C@H](CO)N1C[C@H](C)[C@H](CN(C)C(=O)Nc2cccc3ccccc23)OCCCC[C@H](C)Oc2ccc(NC(=O)C3CCCCC3)cc2C1=O | -4.95% (inactive) | – |
| C[C@@H]1CCCCO[C@@H](CN(C)C(=O)Nc2cccc3ccccc23)[C@H](C)CN([C@H](C)CO)C(=O)c2cc(NC(=O)C3CCCCC3)ccc2O1 | -11.7% (inactive) | – |
| CC(C)(C)c1ccc(-c2nc(-c3ccncc3)no2)cc1 | -16.3% (inactive) | – |
| C[C@H](CO)N1C[C@H](C)[C@H](CN(C)C(=O)Nc2ccc(F)cc2)OCCCC[C@H](C)Oc2ccc(NC(=O)C3CCCCCC3)cc2C1=O | -6.61% (inactive) | – |
| C[C@@H]1CCCCO[C@H](CN(C)C(=O)Nc2cccc3ccccc23)[C@H](C)CN([C@H](C)CO)C(=O)c2cc(NC(=O)C3CCCCC3)ccc2O1 | 3.66% (inactive) | – |
| C[C@H](CO)N1C[C@H](C)[C@H](CN(C)C(=O)Nc2ccc3c(c2)OCO3)OCCCC[C@H](C)Oc2ccc(NC(=O)C3CCCCC3)cc2C1=O | 2.78% (inactive) | – |

| SMILES | activity change, negative = cytotoxicity [1] | AC50 [2] |
| --- | --- | --- |
| C[C@H](CO)N1C[C@H](C)[C@H](CN(C)C(=O)Nc2ccccc2)OCCCC[C@H](C)Oc2ccc(NC(=O)NC3CCCCC3)cc2C1=O | -8.51% (inactive) | – |
| C[C@H](CO)N1C[C@H](C)[C@H](CN(C)C(=O)Nc2cccc3ccccc23)OCCCC[C@H](C)Oc2ccc(NC(=O)NC3CCCCC3)cc2C1=O | -18.8% (inactive) | – |
| CC(=O)Nc1ccc2c(c1)C(=O)N([C@H](C)CO)C[C@H](C)[C@H](CN(C)C(=O)Nc1ccc(F)cc1)OCCCC[C@H](C)O2 | -16.5% (inactive) | – |
| C[C@H](CO)N1C[C@H](C)[C@H](CN(C)C(=O)Nc2ccc(C(F)(F)F)cc2)OCCCC[C@H](C)Oc2ccc(NC(=O)NC3CCCCC3)cc2C1=O | 5.48% (inactive) | – |
| C[C@H](CO)N1C[C@H](C)[C@H](CN(C)C(=O)Nc2ccccc2F)OCCCC[C@H](C)Oc2ccc(NC(=O)C3CCCCC3)cc2C1=O | -11.7% (inactive) | – |
| C[C@H](CO)N1C[C@H](C)[C@H](CN(C)C(=O)Nc2ccc(F)cc2)OCCCC[C@H](C)Oc2ccc(NC(=O)C3CCC3)cc2C1=O | -3.85% (inactive) | – |
| C[C@H](CO)N1C[C@H](C)[C@H](CN(C)C(=O)Nc2ccccc2)OCCCC[C@H](C)Oc2ccc(NC(=O)Nc3ccc4c(c3)OCO4)cc2C1=O | -5.94% (inactive) | – |
| C[C@@H]1CCCCO[C@@H](CN(C)C(=O)Nc2cccc3ccccc23)[C@@H](C)CN([C@H](C)CO)C(=O)c2cc(NC(=O)C3CCCCC3)ccc2O1 | -15.4% (inactive) | – |
| C[C@H](CO)N1C[C@H](C)[C@H](CN(C)C(=O)Nc2cccc3ccccc23)OCCCC[C@H](C)Oc2ccc(NC(=O)CCC(F)(F)F)cc2C1=O | 24.6% (inactive) | – |
| C[C@H](CO)N1C[C@H](C)[C@H](CN(C)C(=O)Nc2ccc3c(c2)OCO3)OCCCC[C@H](C)Oc2ccc(NC(=O)NC3CCCCC3)cc2C1=O | -11.1% (inactive) | – |
| COc1ccc(NC(=O)N(C)C[C@@H]2OCCCC[C@H](C)Oc3ccc(NC(=O)C4CCCCC4)cc3C(=O)N([C@H](C)CO)C[C@@H]2C)cc1 | -7.25% (inactive) | – |
| C[C@@H]1CCCCO[C@@H](CN(C)C(=O)Nc2cccc3ccccc23)[C@@H](C)CN([C@@H](C)CO)C(=O)c2cc(NC(=O)C3CCCCC3)ccc2O1 | -16.3% (inactive) | – |
| C[C@H](CO)N1C[C@H](C)[C@H](CN(C)C(=O)Nc2ccc(F)cc2)OCCCC[C@H](C)Oc2ccc(NC(=O)C3CCCC3)cc2C1=O | 9.39% (inactive) | – |
| C[C@@H]1CCCCO[C@H](CN(C)C(=O)Nc2cccc3ccccc23)[C@@H](C)CN([C@@H](C)CO)C(=O)c2cc(NC(=O)C3CCCCC3)ccc2O1 | 6.63% (inactive) | – |
| COc1ccc(NC(=O)N(C)C[C@@H]2OCCCC[C@H](C)Oc3ccc(NC(=O)NC4CCCCC4)cc3C(=O)N([C@H](C)CO)C[C@@H]2C)cc1 | -10.6% (inactive) | – |
| C[C@H](CO)N1C[C@H](C)[C@H](CN(C)C(=O)Nc2ccc(F)cc2)OCCCC[C@H](C)Oc2ccc(NC(=O)C3CC3)cc2C1=O | -1.35% (inactive) | – |
| C[C@H](CO)N1C[C@H](C)[C@H](CN(C)C(=O)Nc2ccc(F)cc2)OCCCC[C@H](C)Oc2ccc(NC(=O)Nc3ccccc3)cc2C1=O | -10.5% (inactive) | – |
| Cc1ccc(NC(=O)N(C)C[C@@H]2OCCCC[C@H](C)Oc3ccc(NC(=O)C4CCCCC4)cc3C(=O)N([C@H](C)CO)C[C@@H]2C)cc1 | 9.91% (inactive) | – |
| C[C@H](CO)N1C[C@H](C)[C@H](CN(C)C(=O)Nc2ccc(F)cc2)OCCCC[C@H](C)Oc2ccc(NC(=O)Nc3ccc(F)cc3)cc2C1=O | -12.4% (inactive) | – |
| C[C@H]1CCCCO[C@@H](CN(C)S(=O)(=O)c2ccc(Cl)cc2)[C@@H](C)CN([C@@H](C)CO)C(=O)c2cc(NC(=O)NC3CCCCC3)ccc2O1 | – | 15.8 µM |
| C[C@H](CO)N1C[C@H](C)[C@H](CN(C)C(=O)Nc2ccc(F)cc2)OCCCC[C@H](C)Oc2ccc(NC(=O)C3CCOCC3)cc2C1=O | -1.32% (inactive) | – |
| C[C@H]1CCCCO[C@@H](CN(C)C(=O)Nc2ccc3c(c2)OCO3)[C@@H](C)CN([C@@H](C)CO)C(=O)c2cc(NC(=O)NC3CCCCC3)ccc2O1 | -7.34% (inactive) | – |
| C[C@H]1CCCCO[C@@H](CN(C)C(=O)Nc2ccc(F)cc2)[C@@H](C)CN([C@@H](C)CO)C(=O)c2cc(NC(=O)C3CCCCC3)ccc2O1 | -15.6% (inactive) | – |
| C[C@@H]1CCCCO[C@H](CN(C)C(=O)Nc2cccc3ccccc23)[C@@H](C)CN([C@H](C)CO)C(=O)c2cc(NC(=O)C3CCCCC3)ccc2O1 | -3.68% (inactive) | – |
